Test results reported in ChEMBL document CHEMBL1144356 (J Med Chem, 2005).

Key:
Cricetinae gen. sp. [1] = test: Effect at an oral dose of 0.1 mg/kg/day for 14 days on serum triglyceride level of hamster; type: functional, Cricetulus griseus
[2] = molecular target: T1, Peroxisome proliferator-activated receptor gamma (Homo sapiens, UniProt P37231); test: In vitro binding affinity for PPAR-gamma
T1 sequence (P37231 whole entry): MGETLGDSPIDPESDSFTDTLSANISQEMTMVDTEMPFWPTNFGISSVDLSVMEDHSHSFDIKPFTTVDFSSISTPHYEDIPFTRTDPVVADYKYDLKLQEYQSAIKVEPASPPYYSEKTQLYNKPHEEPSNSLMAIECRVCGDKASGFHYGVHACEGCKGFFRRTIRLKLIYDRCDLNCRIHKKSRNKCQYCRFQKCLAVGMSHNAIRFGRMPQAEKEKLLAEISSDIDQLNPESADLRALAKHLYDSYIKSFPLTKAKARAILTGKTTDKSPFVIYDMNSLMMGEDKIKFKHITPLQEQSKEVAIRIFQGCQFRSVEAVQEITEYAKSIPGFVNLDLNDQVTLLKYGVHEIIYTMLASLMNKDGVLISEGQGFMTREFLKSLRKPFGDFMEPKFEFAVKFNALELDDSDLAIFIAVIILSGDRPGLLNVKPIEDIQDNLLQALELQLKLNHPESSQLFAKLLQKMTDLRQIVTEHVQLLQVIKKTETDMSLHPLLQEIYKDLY

Cricetinae gen. sp. [3] = test: Effect at an oral dose of 0.3 mg/kg/day for 14 days on serum cholesterol level of hamster; type: functional, Cricetulus griseus
Cricetinae gen. sp. [4] = test: Effect at an oral dose of 0.1 mg/kg/day for 14 days on serum cholesterol level of hamster; type: functional, Cricetulus griseus
[5] = In vitro binding affinity for PPAR-alpha; parameters: species or system Homo sapiens
Cricetinae gen. sp. [6] = test: Effect at an oral dose of 0.3 mg/kg/day for 14 days on serum triglyceride level of hamster; type: functional, Cricetulus griseus
[7] = molecular target: T2, Peroxisome proliferator-activated receptor delta (Homo sapiens, UniProt Q03181); test: In vitro binding affinity for PPAR-delta
T2 sequence (Q03181 whole entry): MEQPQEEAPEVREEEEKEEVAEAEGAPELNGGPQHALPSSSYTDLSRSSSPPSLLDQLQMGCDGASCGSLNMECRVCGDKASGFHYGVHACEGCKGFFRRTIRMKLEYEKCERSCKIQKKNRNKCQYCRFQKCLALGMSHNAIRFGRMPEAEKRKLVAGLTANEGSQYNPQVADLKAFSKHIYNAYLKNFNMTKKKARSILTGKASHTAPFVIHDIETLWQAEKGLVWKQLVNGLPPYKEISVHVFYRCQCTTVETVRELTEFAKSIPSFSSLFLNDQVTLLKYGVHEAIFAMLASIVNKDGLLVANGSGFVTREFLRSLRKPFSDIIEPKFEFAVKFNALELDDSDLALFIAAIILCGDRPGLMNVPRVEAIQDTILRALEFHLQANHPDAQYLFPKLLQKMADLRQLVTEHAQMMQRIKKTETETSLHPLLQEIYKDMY

[8] = molecular target: T3, Peroxisome proliferator-activated receptor alpha (Canis lupus familiaris, UniProt Q95N78); test: Effective concentration against canine PPAR-alpha in Gal4 transactivation assay
T3 sequence (Q95N78 whole entry): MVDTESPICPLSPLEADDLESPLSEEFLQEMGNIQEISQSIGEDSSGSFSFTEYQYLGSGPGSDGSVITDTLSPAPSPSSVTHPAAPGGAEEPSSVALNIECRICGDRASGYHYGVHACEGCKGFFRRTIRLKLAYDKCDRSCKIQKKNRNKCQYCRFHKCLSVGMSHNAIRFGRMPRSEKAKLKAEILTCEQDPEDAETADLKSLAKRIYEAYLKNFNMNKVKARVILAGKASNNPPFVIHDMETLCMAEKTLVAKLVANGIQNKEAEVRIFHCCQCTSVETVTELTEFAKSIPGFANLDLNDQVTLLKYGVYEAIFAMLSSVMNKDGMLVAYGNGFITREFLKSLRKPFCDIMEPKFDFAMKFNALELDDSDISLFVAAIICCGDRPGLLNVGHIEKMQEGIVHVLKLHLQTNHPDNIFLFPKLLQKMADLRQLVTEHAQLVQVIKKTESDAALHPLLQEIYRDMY

[9] = molecular target: T4, Peroxisome proliferator-activated receptor alpha (Homo sapiens, UniProt Q07869); test: Effective concentration against human PPAR-alpha in Gal4 transactivation assay; type: functional
T4 sequence (Q07869 whole entry): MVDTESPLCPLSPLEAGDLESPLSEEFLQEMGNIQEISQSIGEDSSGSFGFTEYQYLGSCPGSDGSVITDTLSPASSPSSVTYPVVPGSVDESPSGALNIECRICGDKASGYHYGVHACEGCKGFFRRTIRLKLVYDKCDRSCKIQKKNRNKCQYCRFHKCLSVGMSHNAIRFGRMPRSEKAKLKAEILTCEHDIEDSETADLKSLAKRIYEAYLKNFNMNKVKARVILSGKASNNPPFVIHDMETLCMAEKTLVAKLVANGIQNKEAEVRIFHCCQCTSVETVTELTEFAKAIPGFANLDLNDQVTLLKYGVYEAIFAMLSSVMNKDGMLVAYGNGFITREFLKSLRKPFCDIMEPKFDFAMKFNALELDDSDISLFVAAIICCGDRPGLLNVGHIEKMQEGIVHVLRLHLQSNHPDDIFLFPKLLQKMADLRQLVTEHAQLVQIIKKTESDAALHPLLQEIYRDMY

[10] = molecular target: T1, Peroxisome proliferator-activated receptor gamma; test: Effective concentration against human PPAR-gamma in Gal4 transactivation assay; 28% response at 3 uM; type: functional
[11] = molecular target: T1, Peroxisome proliferator-activated receptor gamma; test: Effective concentration against human PPAR-gamma in Gal4 transactivation assay; 4% response at 3 uM; type: functional
[12] = molecular target: T1, Peroxisome proliferator-activated receptor gamma; test: Effective concentration against human PPAR-gamma in Gal4 transactivation assay; 25% response at 3 uM; type: functional
[13] = molecular target: T1, Peroxisome proliferator-activated receptor gamma; test: Effective concentration against human PPAR-gamma in Gal4 transactivation assay; 11% response at 3 uM; type: functional

Row | IC50 [2] [nM] | IC50 [5] [nM] | IC50 [7] [nM] | EC50 [8] [nM] | EC50 [9] [nM] | EC50 [10] [nM] | EC50 [11] [nM] | EC50 [12] [nM] | EC50 [13] [nM] | Structure (SMILES) | TG (Cricetinae gen. sp. [1]) [%] | TC (Cricetinae gen. sp. [3]) [%] | TC (Cricetinae gen. sp. [4]) [%] | TG (Cricetinae gen. sp. [6]) [%]
1 | > 15000 | 4 | > 15000 | < 1 | 2 | > 3000 | – | – | – | CC[C@@]1(C(=O)O)Cc2cc(OCCCOc3ccc(CC(F)(F)F)cc3Cl)ccc2O1 | -13 | -37 | -33 | -26
2 | > 15000 | 21 | > 15000 | 2 | – | – | – | – | – | CC[C@@]1(C(=O)O)Cc2cc(OCCCOc3ccc(CCC(F)(F)F)cc3Cl)ccc2O1 | – | – | – | –
3 | > 50000 | 1390 | > 50000 | – | – | – | – | – | – | CC(C)(C)[C@@]1(C(=O)O)Cc2cc(OCCOc3ccc(OC(F)(F)F)cc3Cl)ccc2O1 | – | – | – | –
4 | > 15000 | 2230 | > 50000 | – | – | – | – | – | – | CC[C@]1(C(=O)O)Cc2cc(OCCCOc3ccc(OC(F)(F)F)cc3Cl)ccc2O1 | – | – | – | –
5 | > 50000 | 1280 | > 15000 | – | – | – | – | – | – | CC(C)[C@]1(C(=O)O)Cc2cc(OCCCOc3ccc(OC(F)(F)F)cc3Cl)ccc2O1 | – | – | – | –
6 | > 50000 | 231 | > 15000 | 130 | – | – | – | – | – | CC[C@@]1(C(=O)O)Cc2cc(OCCCOc3ccc(OCC(F)(F)F)cc3)ccc2O1 | – | – | – | –
7 | > 50000 | 264 | > 50000 | 10 | 57 | – | > 3000 | – | – | CC(C)[C@@]1(C(=O)O)Cc2cc(OCCOc3ccc(OC(F)(F)F)cc3Cl)ccc2O1 | – | – | – | –
8 | > 15000 | 3 | > 15000 | < 1 | – | – | – | > 3000 | – | CC(C)[C@@]1(C(=O)O)Cc2cc(OCCCOc3ccc(OC(F)(F)F)cc3Cl)ccc2O1 | -52 | -54 | -43 | -52
9 | 3220 | 22 | 1190 | < 1 | – | – | – | – | – | CCC1(C(=O)O)Cc2ccc(OCCCOc3ccc(OC(F)(F)F)cc3Cl)cc2O1 (stereo not given) | – | – | – | –
10 | > 15000 | 162 | > 15000 | 42 | 41 | – | – | – | > 3000 | CC(C)[C@@]1(C(=O)O)Cc2cc(OCCCOc3cc(C(F)(F)F)ccc3Cl)ccc2O1 | – | – | – | –
11 | > 15000 | 42 | 834 | – | – | – | – | – | – | CCC1(C(=O)O)Cc2cc(OCCCOc3ccc(C(F)(F)F)cc3Cl)ccc2O1 (racemic) | – | – | – | –
